Measured values from US20260263417A1, “STRUCTURE-BASED OPTIMIZATION OF S6K2 INHIBITOR CD02 TO TARGET MELANOMA” (THE WISTAR INSTITUTE OF ANATOMY AND BIOLOGY, priority 2023, published 2026).
Residues, ends and D or L forms follow the SMILES beside them. *: point of attachment. Cbz = O=C(OCc1ccccc1)*; CH2F = FC*

Assays:
[1] = tested on: pS6 (S240/244) in MAPKi-S cells; test: Phosphorylation of S6K/S6 in MAPKi-S cells (immunoblotting, RPPA, flow cytometry); format: cell-based, human
Protocol: (§1) Cells were lysed with RIPA buffer (50 mM Tris-HCl, pH 7.4, 150 mM NaCl, 1% NP-40, 0.5% sodium deoxycholate, 1 mM EDTA, 2.5 mM sodium pyrophosphate, 0.05% or 0.1% SDS) supplemented with sodium vanadate (0.2 mM) and protease inhibitor cocktail (Sigma-Aldrich #11697498001). Immunoblotting was performed as previously described (Echevarria-Vargas et al., 2018). Immunoblots were imaged with an Odyssey Infrared Imaging System (LI-COR Biosciences).
(§2) Flow cytometry. Cells were fixed in 90% ice cold EtOH/PBS and stored at −20° C. Cells were washed twice with PBS followed by 1 h incubation at RT with incubation buffer (1% BSA/PBS) containing primary antibodies (1:500 pS6 S240/244 Cell Signaling Technology #5364; 1:1000 HA Sigma-Aldrich #H9658). Samples were washed once (1×PBS), incubated for 30 min at RT with incubation buffer containing secondary antibodies diluted to 1:500 (goat anti-mouse Alexa Fluor 488 ThermoFisher #A11029; goat anti-rabbit Alexa Fluor 647 #A21244), washed (1×PBS) and resuspended in incubation buffer for analysis by flow cytometry (BD LSRII 14-color flow cytometer analyser; Alexa Fluor 488 and APC filter sets). Data analyses were performed using FlowJo software to calculate pS6 positivity. For 4-HNE staining, cells were fixed with 4% paraformaldehyde for 15 min, washed with PBS and stored at 4° C. […]

[2] = tested on: pS6 (S240/244) in MAPKi-R cells; test: Phosphorylation of S6K/S6 in MAPKi-R cells (immunoblotting, RPPA, flow cytometry); format: cell-based, human
Protocol: as §1, §2

[3] = tested on: MAPKi-R NRAS-mutant melanoma cells; format: cell-based; settings: for effect on cell death induced by S6K2 depletion (S6K2 shRNA): M93-047 cells transduced with S6K2 shRNA; for effect on S6K2i (CD02)-induced cell death: MAPKi-R cells treated with CD02; for effect on FNB/DHA-induced cell death: M93-047, GSH 2 mM, zVAD 20 μM, Kira6 0.2 μM pre-treatment
Protocol: Floating and attached cells were harvested, washed and stained with PSVue 643/PI or Annexin V-FITC/PI. Annexin V staining was performed as described previously (45), with 15 min Annexin V incubation. For PSVue/PI staining, cells were incubated in 3 μM PSVue 643/TES for 10 min at RT, washed in TES buffer and resuspended in PI (5 μg/mL)/TES for 15 min at RT. Cell death (Annexin V^+/PSVue^+ or PI^+) was quantified by FACS (LSRII 18 color analyzer, BD Biosciences) and analyzed using FlowJo software v.10.7.2.

[4] = tested on: M93047 and WM3623 cell lines; test: Preliminary in vitro studies against MAPKi-R cell lines; format: cell-based, human; settings: at lower concentrations
[5] = tested on: spliced XBP-1 and PPARα in M93-047 cells; test: Spliced XBP-1 and PPARα levels by qRT-PCR / Western blotting; format: cell-based, human
Protocol: as §1
Cell pellets were homogenized using QIAshredder (QIagen #79656) and RNA extracted with PureLink RNA mini kit (Thermo Fisher Scientific, #12183018A). DNA was removed by on-column PureLink DNase treatment (Thermo Fisher Scientific, #12185010). First-strand cDNA was synthesized using Maxima cDNA kit (Thermo Scientific™ #K1642). Real time qPCR was performed using SYBR green PCR Master Mix (Applied Biosystems #4385612). Tumor samples for qRT-PCR were preserved in RNAlater solution (Invitrogen #AM7020).

Compound | effect on cell death induced by S6K2 depletion (S6K2 shRNA) [3] | effect on S6K2i (CD02)-induced cell death [3] | effect on FNB/DHA-induced cell death [3] | also measured
O=C(Nc1ccc2[nH]nc(-c3ccncc3)c2c1)[C@@H]1CCN(CC(=O)N2CCN(c3ccc(-c4ncccn4)cc3)CC2)C1 [SCH984, SCH772984] |  |  |  | phosphorylation of S6K / S6 [1]: decreased phosphorylation of S6; phosphorylation of S6K / S6 [2]: no effect on phosphorylation of S6
COc1ncc(-c2ccc3nccc(-c4ccnnc4)c3c2)cc1NS(=O)(=O)c1ccc(F)cc1F [GSK458, GSK2126458] |  |  |  | phosphorylation of S6K / S6 [1]: decreased phosphorylation of S6; phosphorylation of S6K / S6 [2]: effectively suppressed pS6
CC(=O)N[C@@H](CS)C(=O)O [NAC] | protects M93047 cells from S6K2sh induced cell death | rescues S6K2i-induced cell death |  | 
O=C(CCl)Nc1ccc(-c2cc(O)cc3sc(=O)oc23)cc1 [MM-113] |  |  |  | potency compared with RT12 [4]: better potency at lower concentrations
Cn1cc(-c2ccc(F)c(C(F)(F)F)c2)nc1C1CCN(c2ncnc3[nH]ncc23)CC1 [LY2584702] |  |  |  | cytotoxicity with ectopically expressed activated S6K1 ([3]; M93-047 with S6K1^T389E, 1, 5, 10 μM, 48 hours): enhanced LY4702 cytotoxicity
N[C@@H](CCC(=O)N[C@@H](CS)C(=O)NCC(=O)O)C(=O)O [GSH, glutathione] | also attenuated cell death | attenuate S6K2i-induced cell death | attenuated FNB/DHA-induced cell death | 
CC(C)(C)c1nc(-c2ccc(NC(=O)Nc3cccc(C(F)(F)F)c3)c3ccccc23)c2c(N)nccn12 [Kira6] | partially attenuated cell death | attenuate S6K2i-induced cell death | attenuated FNB/DHA-induced cell death | upregulation of XBP-1 splicing and PPARα expression caused by S6K2 knockdown ([5]; M93-047, S6K2 shRNA): suppressed; activation of XBP-1 by FNB/DHA ([5]; cotreatment with 0.2 μM Kira6): suppressed the activation of XBP-1
COC(=O)C[C@H](NC(=O)[C@H](C)NC(=O)[C@@H](NC(=O)OCc1ccccc1)C(C)C)C(=O)CF [zVAD, zVAD(OMe)-FMK] (Cbz-Val-Ala-Asp(OMe)-CH2F) | also attenuated cell death | attenuate S6K2i-induced cell death | attenuated FNB/DHA-induced cell death | 
CCOC(=O)c1ccc(NC2CCCCC2)c(N)c1 [ferrostatin-1] | did not attenuate cell death |  |  | 
